Laboratory results from ChEMBL document CHEMBL5030557, “Tandem Repeat of a Short Human Chemerin-Derived Peptide and Its Nontoxic d-Lysine-Containing Enantiomer Display Broad-Spectrum Antimicrobial and Antitubercular Activities” (J Med Chem, 2021).
Values after ≈ are worked out from the molar mass of the structure shown. Active and inactive are the calls of the source. No cut-off for these calls is given here.

Columns and labels:
Pseudomonas aeruginosa [1] = assay: Antibacterial activity against Pseudomonas aeruginosa BAA 427 assessed as resistance development by measuring fold change in MIC after 30 passages with serially diluted peptides; assay type: functional
[2] = Hemolytic activity in human RBC measured after 40 mins; assay type: ADME, tissue-based, Erythrocyte; conditions: red blood cells (RBC)
Escherichia coli [3] = assay: Antibacterial activity against Escherichia coli ATCC 25922 in presence of temperature ranging from 4 to 90 degC measured after 1 hr; assay type: functional
[4] = (§1) Disruption of membrane integrity in human RBC cells assessed as membrane damage at 150 uM incubated for 15 min by Alexa fluor-annexin V staining based assay (reference value: 0%); assay type: functional, Red blood cell; conditions: 0.25 h
Pseudomonas aeruginosa [5] = assay: Antimicrobial activity against Pseudomonas aeruginosa ATCC BAA-427 assessed as inhibition of bacterial growth by broth dilution method; assay type: functional
Cell membrane [6] = assay: Induction of membrane damage in Escherichia coli assessed as disruption of membrane integrity at 10 uM incubated for 30 min by propidium iodide staining based assay
Staphylococcus aureus [7] = assay: Antimicrobial activity against methicilin- resistant Staphylococcus aureus ATCC 33591 assessed as inhibition of bacterial growth by broth dilution method; assay type: functional
Klebsiella pneumoniae = assay: Antimicrobial activity against Klebsiella pneumoniae ATCC 27736 assessed as inhibition of bacterial growth by broth dilution method; assay type: functional
Escherichia coli [8] = assay: Antimicrobial activity against Escherichia coli ATCC 25922 assessed as inhibition of bacterial growth by broth dilution method; assay type: functional
Escherichia coli [9] = assay: Antibacterial activity against Escherichia coli ATCC 25922 in presence of 4.5 mM KCl measured after 1 hr; assay type: functional
Bacillus subtilis = assay: Antimicrobial activity against Bacillus subtilis ATCC 6633 assessed as inhibition of bacterial growth by broth dilution method; assay type: functional
Escherichia coli [10] = assay: Antibacterial activity against Escherichia coli ATCC 25922 in presence of 10 percent fresh human serum measured after 1 hr; assay type: functional
Staphylococcus aureus [11] = assay: Antimicrobial activity against Staphylococcus aureus ATCC 25923 assessed as inhibition of bacterial growth by broth dilution method; assay type: functional
Staphylococcus aureus [12] = assay: Antimicrobial activity against multidrug-resistant Staphylococcus aureus ATCC BAA-44 assessed as inhibition of bacterial growth by broth dilution method; assay type: functional
Escherichia coli [13] = assay: Antibacterial activity against Escherichia coli ATCC 25922 in presence of 150 mM NaCl measured after 1 hr; assay type: functional
[14] = Retention time of the compound analysed by RP-HPLC analysis; assay type: physicochemical
[15] = tested on: Mycobacterium tuberculosis; assay: Anti-mycobacterial activity against Mycobacterium tuberculosis H37Ra assessed as growth inhibition at 16.13 uM relative to control; assay type: functional
Red blood cell = assay: as §1; assay type: functional
Escherichia coli [16] = assay: Bactericidal activity against Escherichia coli ATCC 25922 assessed as bacterial killing at 5 times MIC measured after 60 min; assay type: functional, organism-based
[17] = Permeability of the compound in PC/PG lipid vesicles by spectrofluorometry; assay type: ADME
[18] = Acute toxicity in BALB/c mouse assessed as survival at 30 mg/kg administered intravenously measured after 7 days; assay type: organism-based; conditions: in vivo, iv, 168 h, time 7 day
[19] = tested on: Mycolicibacterium smegmatis; assay: Anti-mycobacterial activity against Mycobacterium smegmatis infected in human THP-1 cells assessed as reduction in CFU at 24.19 uM after 24 hrs; assay type: functional
Lipid bilayer = assay: Induction of membrane depolarization in mammalian mimetic PC/Chol vesicles assessed as membrane permeabilization
[20] = Acute toxicity in BALB/c mouse assessed as survival at 20 mg/kg administered intravenously measured after 7 days; assay type: organism-based; conditions: in vivo, iv, 168 h, time 7 day
Cell membrane [21] = assay: Disruption of plasma membrane in Staphylococcus aureus ATCC 25923 at 10 uM by SYTOX-green uptake assay; assay type: cell membranes; conditions: TDE = time-dependent effect
[22] = Stability of the compound in human serum assessed as intact compound remaining at 2 mg/ml measured after 60 mins by […] analysis; assay type: ADME, cell-free; conditions: read-out: Stability
[23] = tested on: Mycolicibacterium smegmatis; assay: Anti-mycobacterial activity against Mycobacterium smegmatis infected in human THP-1 cells assessed as reduction in CFU at 40.13 uM after 24 hrs; assay type: functional
[24] = tested on: Mycolicibacterium smegmatis; assay: Anti-mycobacterial activity against Mycobacterium smegmatis assessed as growth inhibition at 16.13 uM relative to control; assay type: functional
Pseudomonas aeruginosa [25] = assay: Antibacterial activity against Pseudomonas aeruginosa infected in Balb/c mouse stomach assessed as animal survival at 100 mg/kg, ip after 7 days; assay type: functional; conditions: 168 h, time 7 day

| SMILES | fold change (FC) (Pseudomonas aeruginosa [1]) | HC50 at 40 min [2] | MIC (Escherichia coli [3]) | Activity [4] | MIC (Pseudomonas aeruginosa [5]) | Activity (Cell membrane [6]) | MIC (Staphylococcus aureus [7]) | MIC (Klebsiella pneumoniae) | MIC (Escherichia coli [8]) | MIC (Escherichia coli [9]) | MIC (Bacillus subtilis) | MIC (Escherichia coli [10]) | MIC (Staphylococcus aureus [11]) | MIC (Staphylococcus aureus [12]) | MIC (Escherichia coli [13]) | Retention_time [14] | further results |
| --- | --- | --- | --- | --- | --- | --- | --- | --- | --- | --- | --- | --- | --- | --- | --- | --- | --- |
| O=C(O)c1cn(C2CC2)c2cc(N3CCNCC3)c(F)cc2c1=O [CIPROFLOXACIN] | 64 |  |  |  |  |  |  |  |  |  |  |  |  |  |  |  |  |
| CC(C)C[C@H](NC(=O)[C@H](CCCNC(=N)N)NC(=O)CNC(=O)[C@H](CC(C)C)NC(=O)[C@@H](NC(=O)[C@@H](CCCCN)NC(=O)[C@@H](NC(=O)[C@H](CC(C)C)NC(=O)[C@H](CCCNC(=N)N)NC(=O)CNC(=O)[C@H](CC(C)C)NC(=O)[C@@H](NC(=O)[C@H](N)CCCCN)C(C)C)C(C)C)C(C)C)C(=O)N[C@H](C(N)=O)C(C)C |  | 1.93 mM | 2 µM | 13.9% | 4 µM (≈ 6.2 µg/mL) | Active | 2 µM (≈ 3.1 µg/mL) | 4 µM (≈ 6.2 µg/mL) | 1 µM (≈ 1.55 µg/mL) | 2 µM | 2 µM (≈ 3.1 µg/mL) | 2 µM | 2 µM (≈ 3.1 µg/mL) | 2 µM (≈ 3.1 µg/mL) | 1 µM | 16.5 min |  |
| CC(C)C[C@H](NC(=O)[C@H](CCCNC(=N)N)NC(=O)CNC(=O)[C@H](CC(C)C)NC(=O)[C@@H](NC(=O)[C@H](CCCCN)NC(=O)[C@@H](NC(=O)[C@H](CC(C)C)NC(=O)[C@H](CCCNC(=N)N)NC(=O)CNC(=O)[C@H](CC(C)C)NC(=O)[C@@H](NC(=O)[C@@H](N)CCCCN)C(C)C)C(C)C)C(C)C)C(=O)N[C@H](C(N)=O)C(C)C | 8 | 0.429 mM | 2 µM | 96.5% | 4 µM (≈ 6.2 µg/mL) | Active | 1 µM (≈ 1.55 µg/mL) | 4 µM (≈ 6.2 µg/mL) | 1 µM (≈ 1.55 µg/mL) | 2 µM | 2 µM (≈ 3.1 µg/mL) | 2 µM | 2 µM (≈ 3.1 µg/mL) | 2 µM (≈ 3.1 µg/mL) | 2 µM | 16 min | inhibition at 16.13 µM [15]: 80%; Activity (Red blood cell): Active; Activity (Escherichia coli [16]): Active; Activity [17]: Active; Activity [18]: Non-Toxic; inhibition at 24.19 µM [19]: 20%; Activity (Lipid bilayer): inactive; Activity [20]: Non-Toxic; Activity (Cell membrane [21]): Tde; remaining at 1 h, 2 mg/ml [22]: 51%; inhibition at 40.13 µM [23]: 40%; inhibition at 16.13 µM [24]: 80% |
| C[C@H]1COc2c(N3CCN(C)CC3)c(F)cc3c(=O)c(C(=O)O)cn1c23 [LEVOFLOXACIN] |  |  |  |  |  |  |  |  |  |  |  |  |  |  |  |  | survival at 100 mg/kg (Pseudomonas aeruginosa [25]): 100% |
| CC[C@H](C)[C@H](NC(=O)CN)C(=O)NCC(=O)N[C@@H](C)C(=O)N[C@H](C(=O)N[C@@H](CC(C)C)C(=O)N[C@@H](CCCCN)C(=O)N[C@H](C(=O)N[C@@H](CC(C)C)C(=O)N[C@H](C(=O)N[C@H](C(=O)NCC(=O)N[C@@H](CC(C)C)C(=O)N1CCC[C@H]1C(=O)N[C@@H](C)C(=O)N[C@@H](CC(C)C)C(=O)N[C@H](C(=O)N[C@@H](CO)C(=O)N[C@@H](Cc1c[nH]c2ccccc12)C(=O)N[C@H](C(=O)N[C@@H](CCCCN)C(=O)N[C@@H](CCCNC(=N)N)C(=O)N[C@@H](CCCCN)C(=O)N[C@@H](CCCNC(=N)N)C(=O)N[C@@H](CCC(N)=O)C(=O)N[C@@H](CCC(N)=O)C(N)=O)[C@@H](C)CC)[C@@H](C)CC)[C@@H](C)O)[C@@H](C)O)C(C)C)C(C)C [MELITTIN] |  |  |  | 99.6% |  |  |  |  |  |  |  |  |  |  |  |  |  |
